Experimental data: article PMC10281575, “PfCRT mutations conferring piperaquine resistance in falciparum malaria shape the kinetics of quinoline drug binding and transport” (PLOS Pathogens, 2023)
Values joined by “and” are separate entries in the source; they are usually repeats but may differ in a detail not shown here. Equal entries are not always repeated.

Target: T1, PfCRT^Dd2_F145I (Plasmodium falciparum, UniProt Q8IBZ9, A220S/F145I/I356T/K76T/M74I/N326S/N75E/Q271E/R371I)
T1 construct: expressed in transfected cells; host or cells: Xenopus laevis oocytes injected with in vitro transcribed RNA (pSP64T)
T1 sequence (Q8IBZ9 1-424 M74I/N75E/K76T/F145I/A220S/Q271E/N326S/I356T/R371I): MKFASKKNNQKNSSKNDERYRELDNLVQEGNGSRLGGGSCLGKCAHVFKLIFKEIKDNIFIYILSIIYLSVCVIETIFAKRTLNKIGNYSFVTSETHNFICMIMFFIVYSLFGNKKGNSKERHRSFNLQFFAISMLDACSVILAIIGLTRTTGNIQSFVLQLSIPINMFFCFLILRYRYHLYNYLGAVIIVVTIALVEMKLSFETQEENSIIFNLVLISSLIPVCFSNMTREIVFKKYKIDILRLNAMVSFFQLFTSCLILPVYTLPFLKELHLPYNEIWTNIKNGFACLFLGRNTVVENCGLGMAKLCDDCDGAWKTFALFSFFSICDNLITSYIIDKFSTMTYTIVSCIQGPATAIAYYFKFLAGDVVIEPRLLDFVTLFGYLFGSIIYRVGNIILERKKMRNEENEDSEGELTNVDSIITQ
Assay: Competition kinetics of drug transport (radiolabeled substrate plus cold inhibitor), PfCRT^Dd2_F145I-expressing oocytes
Type: cell-based
Procedure: To further characterize the kinetic relationship between CQ and PPQ, we performed a series of competition reactions. To this end, water-injected oocytes and PfCRT-expressing oocytes were incubated in medium containing one of seven concentrations of radio-labeled CQ and one of six concentrations of cold PPQ for 60 min before the amount of radio-labeled CQ uptake was determined. The rate of PfCRT-mediated CQ uptake was calculated for each condition by subtracting the corresponding value obtained for water-injected oocytes from those of PfCRT-expressing oocytes. The results were analyzed as a function of the CQ concentration (Fig 4A) and 16 different models of substrate competition were globally fit to the data by the least-squares method, using Python. The models were ranked, according to their Akaike information criterion difference (ΔAICC) and their Akaike weight (Fig 4B), with the most plausible model being the one with the lowest AICC (ΔAICC = 0) and the highest Akaike weight.
A complementary set of experiments was undertaken to investigate the kinetic mechanism by which PfCRT^Dd2_F145I accepts CQ and PPQ (Fig 6). […] These included a global fit of the substrate competition data to the 16 kinetic models (Fig 6), analysis of the secondary plots (Vmax,app and Vmax,app/KM,app as a function of the inhibitor concentration) (Fig 7A), a fractional velocity plot analysis (Fig 7B) and a comparison of the experimental data with the modelled data using the noncompetitive inhibition equation (Fig 7C to 7F). […] The fractional velocity plot illustrated the partial character of the noncompetitive inhibition mechanism by yielding a partiality factor β^CQ = 0.31 ± 0.04, by which PPQ reduces the transport velocity of CQ (Fig 7B). […] A 3D model of the kinetics between PfCRT^Dd2_F145I, CQ and PPQ, and analyses of the residuals as a function of substrate and inhibitor concentrations confirmed that the model was also an appropriate explanation for the mutant transporter (Fig 7C to 7F).
Drug transport assays were performed as previously described. Briefly, measurements of radiolabeled drug uptake were made over 1 h, unless otherwise specified. […] Where specified, one or more unlabeled drugs were also present at the indicated concentrations. The direction of drug transport in the assays is from the extracellular medium (pH 6) into the oocyte cytosol (pH 7.2), which corresponds to the efflux of CQ or PPQ from the acidic digestive vacuole (pH 5.2) into the parasite cytosol (pH 7.2). The uptake assays were terminated by removing the oocytes from the reaction medium and washing them three times with 2 mL of ice-cold ND96 buffer. Each oocyte was transferred to a separate scintillation vial and lysed by the addition of 200 μL of a 5% SDS solution. The radioactivity in the sample was measured using a liquid scintillation analyser Tri-Carb 4910 TR (PerkinElmer). Water-injected oocytes were analyzed in parallel as a negative control. The buffer from each condition was measured in duplicate in parallel to each experiment to transform counts per minute into pmol of drug. Drug uptake attributable to PfCRT was determined by subtracting the background uptake from water-injected oocytes from that of PfCRT-expressing oocytes. In all cases, at least three independent experiments were performed on oocytes from different frogs, and for each condition in an experiment, measurements were made from 10 oocytes per treatment.
The following equations were adopted from Segel (1993), and the reader is referred to that text for the assumptions made in the author’s approach in the derivation of each equation [31]. The concentration of substrate is denoted as [S1] and the concentration of the inhibiting substrate is denoted as [S2]. KS1 and KS2 are the dissociation constants for the respective substrate-protein complexes.
Analyses of the kinetic data were performed using SigmaPlot version 13.0 and Python. […]

CCN(CC)CCCC(C)Nc1ccnc2cc(Cl)ccc12 (stereo not shown) [CQ, chloroquine]
PfCRTDd2_F145I-mediated CQ transport (10 µM CQ, 50 µM PPQ): 0.59 pmol oocyte-1 h-1 and 0.39 pmol oocyte-1 h-1 | PfCRTDd2_F145I-mediated CQ transport (10 µM CQ, 125 µM PPQ): 0.68 pmol oocyte-1 h-1 and 0.58 pmol oocyte-1 h-1 and 0.47 pmol oocyte-1 h-1 | PfCRTDd2_F145I-mediated CQ transport (10 µM CQ, 200 µM PPQ): 0.27 pmol oocyte-1 h-1 and 0.32 pmol oocyte-1 h-1 and 0.33 pmol oocyte-1 h-1 | PfCRTDd2_F145I-mediated CQ transport (10 µM CQ, 350 µM PPQ): 0.43 pmol oocyte-1 h-1 and 0.31 pmol oocyte-1 h-1 and 0.46 pmol oocyte-1 h-1 | PfCRTDd2_F145I-mediated CQ transport (50 µM CQ, 0 µM PPQ): 3.80 pmol oocyte-1 h-1 and 4.28 pmol oocyte-1 h-1 and 2.84 pmol oocyte-1 h-1 | PfCRTDd2_F145I-mediated CQ transport (50 µM CQ, 50 µM PPQ): 3.24 pmol oocyte-1 h-1 and 2.4 pmol oocyte-1 h-1 and 3.22 pmol oocyte-1 h-1 | PfCRTDd2_F145I-mediated CQ transport (50 µM CQ, 125 µM PPQ): 3.47 pmol oocyte-1 h-1 and 2.37 pmol oocyte-1 h-1 and 2.11 pmol oocyte-1 h-1 | PfCRTDd2_F145I-mediated CQ transport (50 µM CQ, 200 µM PPQ): 2.85 pmol oocyte-1 h-1 and 2.54 pmol oocyte-1 h-1 and 2.07 pmol oocyte-1 h-1 | PfCRTDd2_F145I-mediated CQ transport (50 µM CQ, 350 µM PPQ): 1.72 pmol oocyte-1 h-1 and 1.78 pmol oocyte-1 h-1 and 2.56 pmol oocyte-1 h-1 | PfCRTDd2_F145I-mediated CQ transport (50 µM CQ, 500 µM PPQ): 1.90 pmol oocyte-1 h-1 and 2.40 pmol oocyte-1 h-1 | PfCRTDd2_F145I-mediated CQ transport (100 µM CQ, 0 µM PPQ): 5.25 pmol oocyte-1 h-1 and 7.33 pmol oocyte-1 h-1 and 8.14 pmol oocyte-1 h-1 | PfCRTDd2_F145I-mediated CQ transport (100 µM CQ, 125 µM PPQ): 4.86 pmol oocyte-1 h-1 and 5.68 pmol oocyte-1 h-1 and 5.61 pmol oocyte-1 h-1 | PfCRTDd2_F145I-mediated CQ transport (100 µM CQ, 200 µM PPQ): 4.12 pmol oocyte-1 h-1 and 4.69 pmol oocyte-1 h-1 and 4.23 pmol oocyte-1 h-1 | PfCRTDd2_F145I-mediated CQ transport (100 µM CQ, 350 µM PPQ): 3.37 pmol oocyte-1 h-1 and 4.27 pmol oocyte-1 h-1 and 5.15 pmol oocyte-1 h-1 | PfCRTDd2_F145I-mediated CQ transport (200 µM CQ, 0 µM PPQ): 12.53 pmol oocyte-1 h-1 and 12.79 pmol oocyte-1 h-1 | PfCRTDd2_F145I-mediated CQ transport (200 µM CQ, 50 µM PPQ): 14.25 pmol oocyte-1 h-1 and 10 pmol oocyte-1 h-1 and 10.59 pmol oocyte-1 h-1 | PfCRTDd2_F145I-mediated CQ transport (200 µM CQ, 125 µM PPQ): 10.11 pmol oocyte-1 h-1 and 9.30 pmol oocyte-1 h-1 and 9.95 pmol oocyte-1 h-1 | PfCRTDd2_F145I-mediated CQ transport (200 µM CQ, 200 µM PPQ): 7.48 pmol oocyte-1 h-1 and 7.15 pmol oocyte-1 h-1 and 10.15 pmol oocyte-1 h-1 | PfCRTDd2_F145I-mediated CQ transport (200 µM CQ, 350 µM PPQ): 6.25 pmol oocyte-1 h-1 and 7.4 pmol oocyte-1 h-1 and 8.42 pmol oocyte-1 h-1 | PfCRTDd2_F145I-mediated CQ transport (200 µM CQ, 500 µM PPQ): 7.88 pmol oocyte-1 h-1 and 6.35 pmol oocyte-1 h-1 | PfCRTDd2_F145I-mediated CQ transport (300 µM CQ, 0 µM PPQ): 13.73 pmol oocyte-1 h-1 and 19.15 pmol oocyte-1 h-1 | PfCRTDd2_F145I-mediated CQ transport (300 µM CQ, 50 µM PPQ): 13.84 pmol oocyte-1 h-1 and 14.19 pmol oocyte-1 h-1 and 16.04 pmol oocyte-1 h-1 | PfCRTDd2_F145I-mediated CQ transport (300 µM CQ, 125 µM PPQ): 11.05 pmol oocyte-1 h-1 and 9.73 pmol oocyte-1 h-1 and 15.82 pmol oocyte-1 h-1 | PfCRTDd2_F145I-mediated CQ transport (300 µM CQ, 200 µM PPQ): 10.02 pmol oocyte-1 h-1 and 12.63 pmol oocyte-1 h-1 and 9.83 pmol oocyte-1 h-1 | PfCRTDd2_F145I-mediated CQ transport (300 µM CQ, 350 µM PPQ): 9.31 pmol oocyte-1 h-1 and 9.21 pmol oocyte-1 h-1 and 10.66 pmol oocyte-1 h-1 | PfCRTDd2_F145I-mediated CQ transport (300 µM CQ, 500 µM PPQ): 9.09 pmol oocyte-1 h-1 and 11.47 pmol oocyte-1 h-1 | PfCRTDd2_F145I-mediated CQ transport (400 µM CQ, 0 µM PPQ): 14.23 pmol oocyte-1 h-1 and 18.19 pmol oocyte-1 h-1 | PfCRTDd2_F145I-mediated CQ transport (400 µM CQ, 50 µM PPQ): 15.01 pmol oocyte-1 h-1 and 14.7 pmol oocyte-1 h-1 and 18.28 pmol oocyte-1 h-1 | PfCRTDd2_F145I-mediated CQ transport (400 µM CQ, 125 µM PPQ): 14.33 pmol oocyte-1 h-1 and 12.62 pmol oocyte-1 h-1 and 13.88 pmol oocyte-1 h-1 | PfCRTDd2_F145I-mediated CQ transport (400 µM CQ, 200 µM PPQ): 9.98 pmol oocyte-1 h-1 and 13.36 pmol oocyte-1 h-1 and 12.15 pmol oocyte-1 h-1 | PfCRTDd2_F145I-mediated CQ transport (400 µM CQ, 350 µM PPQ): 7.72 pmol oocyte-1 h-1 and 13.35 pmol oocyte-1 h-1 and 10.83 pmol oocyte-1 h-1 | PfCRTDd2_F145I-mediated CQ transport (500 µM CQ, 0 µM PPQ): 19.16 pmol oocyte-1 h-1 and 17.86 pmol oocyte-1 h-1 | PfCRTDd2_F145I-mediated CQ transport (500 µM CQ, 50 µM PPQ): 16.43 pmol oocyte-1 h-1 and 15.64 pmol oocyte-1 h-1 and 17.36 pmol oocyte-1 h-1 | PfCRTDd2_F145I-mediated CQ transport (500 µM CQ, 125 µM PPQ): 14.97 pmol oocyte-1 h-1 and 16.69 pmol oocyte-1 h-1 and 12.9 pmol oocyte-1 h-1
